The values that follow are results of earlier work, collected in publication PMC7933317 (Probiotics and antimicrobial proteins, 2021).

This series deals with human red blood cells (RBCs). The note with it: over the same concentration range; ref [30].

Consider ALWKKLLKKLLKSAKKLG [C18G], for which the “hemolysis of human RBCs” value is < 10%.
